# Measured values: patent US9944654B2, “Nargenicin compounds and uses thereof as antibacterial agents” (priority 2014, dated 2018)
# Read-outs that look alike come from different tables or passages of the source.
# Tests used:
# [1] = biological target: T1, S. aureus DnaE (DNA polymerase III α-subunit homolog from Staphylococcus aureus) (Staphylococcus aureus, UniProt Q5HF71); test: biochemical; assay type: biochemical
# T1 construct: SaDnaE (S. aureus DnaE residues 1-1065); 6xHis (N); made in house; host or cells: E. coli BL21-AI
# T1 sequence (Q5HF71 1-1065): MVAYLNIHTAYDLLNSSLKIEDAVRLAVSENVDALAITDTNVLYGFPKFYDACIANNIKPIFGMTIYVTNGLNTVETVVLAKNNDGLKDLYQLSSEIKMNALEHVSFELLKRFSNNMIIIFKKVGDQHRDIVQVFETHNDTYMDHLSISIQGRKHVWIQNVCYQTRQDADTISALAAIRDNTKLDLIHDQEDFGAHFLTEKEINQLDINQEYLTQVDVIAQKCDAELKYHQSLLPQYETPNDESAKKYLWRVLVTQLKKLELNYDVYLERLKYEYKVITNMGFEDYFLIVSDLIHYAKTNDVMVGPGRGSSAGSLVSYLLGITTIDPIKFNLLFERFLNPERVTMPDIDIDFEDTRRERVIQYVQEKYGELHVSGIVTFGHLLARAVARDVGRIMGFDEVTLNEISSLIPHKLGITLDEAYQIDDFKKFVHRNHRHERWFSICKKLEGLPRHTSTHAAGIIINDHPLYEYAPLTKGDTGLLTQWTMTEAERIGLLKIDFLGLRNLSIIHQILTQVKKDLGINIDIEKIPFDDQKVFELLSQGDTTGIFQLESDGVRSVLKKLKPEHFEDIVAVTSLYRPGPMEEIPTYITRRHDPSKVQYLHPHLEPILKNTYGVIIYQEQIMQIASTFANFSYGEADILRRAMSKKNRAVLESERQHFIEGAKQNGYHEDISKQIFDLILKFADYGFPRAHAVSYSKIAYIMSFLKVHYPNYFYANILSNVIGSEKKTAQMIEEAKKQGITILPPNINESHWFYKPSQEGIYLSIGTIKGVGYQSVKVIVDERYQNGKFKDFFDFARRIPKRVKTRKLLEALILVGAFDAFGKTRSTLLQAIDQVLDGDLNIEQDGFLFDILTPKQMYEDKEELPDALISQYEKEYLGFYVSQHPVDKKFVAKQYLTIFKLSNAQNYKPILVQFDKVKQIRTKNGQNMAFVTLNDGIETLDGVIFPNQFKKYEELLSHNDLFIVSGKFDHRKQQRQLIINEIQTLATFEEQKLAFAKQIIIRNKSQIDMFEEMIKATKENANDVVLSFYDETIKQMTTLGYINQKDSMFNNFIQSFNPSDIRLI
# Method in brief: (§1)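 His-tagged E. coli DnaE (residues 1-1160, 0.8 μg/ml) or S. aureus DnaE (residues 1-1065, 0.05 μg/ml) incubated 30 min at 30° C. with activated calf thymus DNA, 0.025 mM dATP/dGTP/dCTP and 0.011 mM 3H-dTTP in Tris pH 7.5/Mg acetate. TCA-precipitated labelled DNA counted.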
# [2] = system: Drug susceptible M. tuberculosis clinical isolates; assay type: cell-based, Mycobacterium tuberculosis
# [3] = system: Pseudomonas aeruginosa MB5890 (CB1101, efflux-deleted); test: microbe, parasite or virus in culture; assay type: cell-based; details: * = some reduction of growth versus control at […]; for P. aeruginosa MB5890 efflux-del (MIC): MHII broth; for MIC: Pseudomonas aeruginosa, read-out: P. aeruginosa MB5890 efflux-del (MIC), MHII broth
# [4] = biological target: T2, E. coli DnaE (DNA polymerase III α-subunit from Escherichia coli) (Escherichia coli, UniProt P10443); test: In vitro DnaE single enzyme assay (E. coli); assay type: biochemical; details: for IC50: read-out: E. coli DnaE IC50 (converted)
# T2 construct: EcDnaE (E. coli DnaE residues 1-1160); 6xHis (N); made in house; host or cells: E. coli BL21(DE3)
# T2 sequence (P10443 whole entry, the tested form may be a part): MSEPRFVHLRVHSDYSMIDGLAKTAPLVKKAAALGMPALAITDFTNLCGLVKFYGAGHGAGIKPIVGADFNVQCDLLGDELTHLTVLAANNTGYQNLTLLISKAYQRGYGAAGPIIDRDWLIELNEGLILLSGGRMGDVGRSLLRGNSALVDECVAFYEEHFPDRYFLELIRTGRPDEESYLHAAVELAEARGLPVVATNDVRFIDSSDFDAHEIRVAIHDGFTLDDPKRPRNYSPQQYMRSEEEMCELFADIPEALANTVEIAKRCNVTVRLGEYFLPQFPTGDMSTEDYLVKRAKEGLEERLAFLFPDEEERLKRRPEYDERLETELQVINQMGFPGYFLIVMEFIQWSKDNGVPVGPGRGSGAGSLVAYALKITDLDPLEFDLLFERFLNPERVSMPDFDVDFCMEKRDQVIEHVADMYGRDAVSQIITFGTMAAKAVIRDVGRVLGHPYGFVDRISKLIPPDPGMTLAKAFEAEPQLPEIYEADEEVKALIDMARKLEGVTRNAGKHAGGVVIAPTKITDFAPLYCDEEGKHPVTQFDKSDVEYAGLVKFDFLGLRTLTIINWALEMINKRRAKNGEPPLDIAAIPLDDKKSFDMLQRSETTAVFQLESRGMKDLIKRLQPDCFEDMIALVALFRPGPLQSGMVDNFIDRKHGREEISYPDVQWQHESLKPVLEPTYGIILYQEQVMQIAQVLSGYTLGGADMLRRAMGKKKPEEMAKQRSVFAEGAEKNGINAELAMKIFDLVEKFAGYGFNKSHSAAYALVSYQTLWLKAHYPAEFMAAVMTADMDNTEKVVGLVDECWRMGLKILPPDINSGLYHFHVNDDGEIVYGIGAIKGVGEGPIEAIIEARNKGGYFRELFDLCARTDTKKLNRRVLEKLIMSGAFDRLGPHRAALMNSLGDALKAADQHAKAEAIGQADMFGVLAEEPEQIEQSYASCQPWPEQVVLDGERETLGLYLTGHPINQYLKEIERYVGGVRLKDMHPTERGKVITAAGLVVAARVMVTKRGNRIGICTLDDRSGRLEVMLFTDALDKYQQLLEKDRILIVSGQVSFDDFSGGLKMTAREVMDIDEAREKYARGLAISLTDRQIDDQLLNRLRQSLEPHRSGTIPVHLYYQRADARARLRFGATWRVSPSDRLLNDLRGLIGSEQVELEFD
# Method in brief: as §1
# [5] = system: Staphylococcus aureus MB6266 (MRSA COL); test: Nargenicin antibacterial assay (MIC), S. aureus; assay type: cell-based; details: * = some reduction of growth versus control at […]; for S. aureus COL (MIC): MHII broth + 50% human serum; for MIC: Staphylococcus aureus, MRSA, read-out: S. aureus COL (MIC), MHII broth + 50% human serum
# [6] = system: Streptococcus pneumoniae MB6357 (CL 2883); test: Nargenicin antibacterial assay (MIC), S. pneumoniae; assay type: cell-based; details: * = some reduction of growth versus control at […]; for S. pneumoniae MB2883 (MIC): Isosensitest broth; for MIC: Streptococcus pneumoniae, read-out: S. pneumoniae MB2883 (MIC), Isosensitest broth
# [7] = system: Escherichia coli MB5747 (LS 883, tolC); test: microbe, parasite or virus in culture; assay type: cell-based; details: * = some reduction of growth versus control at […]; for E. coli LS883 tolC (MIC): MHII broth; for MIC: Escherichia coli, read-out: E. coli LS883 tolC (MIC), MHII broth
SMILES,S. aureus DnaE IC50 [1],MICs compared with nargenicin [2],P. aeruginosa MB5890 efflux-del (MIC) [3],E. coli DnaE IC50 [4],S. aureus COL (MIC) [5],S. pneumoniae MB2883 (MIC) [6],E. coli LS883 tolC (MIC) [7],MICs compared with nargenicin ([2]; M. tuberculosis clinical isolates (MTB panel)),IC50 ([1]; S. aureus DnaE IC50),MIC [3],IC50 [4],MIC [5],MIC [6],MIC [7],IC50 ([1]; read-out: S. aureus DnaE IC50)
CO[C@H]1C[C@H]2C=CC3C4[C@H](O)[C@@H](C)[C@@H](OC(=O)c5ccc[nH]5)[C@@H]3O[C@]42/C(C)=C/[C@@H](C)[C@@H]([C@@H](C)OC(=O)C(=O)N2CCOCC2)OC1=O [Example 118],0.004 µg/mL,equal to or better than nargenicin,32 µg/mL,>100 µg/mL,0.5 µg/mL,128 µg/mL,1 µg/mL,–,–,–,–,–,–,–,–
CO[C@H]1CC2C=C[C@H]3[C@H]4O[C@]2(/C(C)=C/[C@@H](C)[C@@H](C(C)O)OC1=O)[C@@H]3[C@H](O)[C@@H](C)[C@H]4OC(=O)c1cccn1C(=O)C(C)C (some centres unmarked) [Example 204],–,–,–,–,–,–,–,equal to or better than nargenicin,–,–,–,–,–,–,–
CO[C@H]1C[C@H]2C=CC3C4[C@H](O)[C@@H](C)[C@@H](OC(=O)c5ccc[nH]5)[C@@H]3O[C@]42/C(C)=C/[C@@H](C)[C@@H]([C@@H](C)OC(=O)C(=O)OCCCN(C)C)OC1=O.O=C(O)C(F)(F)F [Example 206],–,–,–,–,–,–,–,–,< 7.63 nM,64 µg/mL,1910 nM,4 µg/mL,> 128 µg/mL,4 µg/mL,–
CO[C@H]1C[C@H]2C=CC3C4[C@H](O)[C@@H](C)[C@@H](OC(=O)c5ccc[nH]5)[C@@H]3O[C@]42/C(C)=C/[C@@H](C)[C@@H]([C@@H](C)OC(=O)C(=O)OCc2cncn2C)OC1=O.O=C(O)C(F)(F)F [Example 207],–,–,–,–,–,–,–,–,< 7.54 nM,64 µg/mL,3270 nM,4 µg/mL,> 64 µg/mL,4 µg/mL,–
CO[C@H]1C[C@H]2C=CC3C4[C@H](OC(=O)C(=O)OCCN5CCN(C)CC5)[C@@H](C)[C@@H](OC(=O)c5ccc[nH]5)[C@@H]3O[C@]42/C(C)=C/[C@@H](C)[C@@H]([C@@H](C)OC(=O)C(=O)OCCN2CCN(C)CC2)OC1=O.O=C(O)C(F)(F)F [Example 209],–,–,–,–,–,–,–,–,< 5.85 nM,> 128 µg/mL,16600 nM,4 µg/mL,> 128 µg/mL,4 µg/mL,–
CO[C@H]1C[C@H]2C=CC3C4[C@H](O)[C@@H](C)[C@@H](OC(=O)c5ccc[nH]5)[C@@H]3O[C@]42/C(C)=C/[C@@H](C)[C@@H]([C@@H](C)OC(=O)C(=O)OCCN2CCN(C)CC2)OC1=O.O=C(O)C(F)(F)F [Example 210],–,–,–,–,–,–,–,–,< 7.25 nM,32 µg/mL,4950 nM,1 µg/mL,> 128 µg/mL,1 µg/mL,–
CO[C@H]1C[C@H]2C=CC3C4[C@H](O)[C@@H](C)[C@@H](OC(=O)c5ccc[nH]5)[C@@H]3O[C@]42/C(C)=C/[C@@H](C)[C@@H]([C@@H](C)OC(=O)C(=O)OCc2ccccc2)OC1=O [Example 211],–,–,–,–,–,–,–,–,< 8.85 nM,16 µg/mL,2950 nM,0.5 µg/mL,> 128 µg/mL,< 0.125 µg/mL,–
CO[C@H]1C[C@H]2C=CC3C4[C@H](O)[C@@H](C)[C@@H](OC(=O)c5ccc[nH]5)[C@@H]3O[C@]42/C(C)=C/[C@@H](C)[C@@H]([C@@H](C)OC(=O)C(=O)OCCN2CCCC2)OC1=O.O=C(O)C(F)(F)F [Example 212],–,–,–,–,–,–,–,–,< 7.51 nM,128 µg/mL,3760 nM,4 µg/mL,> 128 µg/mL,4 µg/mL,–
CO[C@H]1C[C@H]2C=CC3C4[C@H](O)[C@@H](C)[C@@H](OC(=O)c5ccc[nH]5)[C@@H]3O[C@]42/C(C)=C/[C@@H](C)[C@@H]([C@@H](C)OC(=O)C(=O)OCCN2CCCCC2)OC1=O.O=C(O)C(F)(F)F [Example 213],–,–,–,–,–,–,–,–,< 7.38 nM,128 µg/mL,4430 nM,4 µg/mL,> 128 µg/mL,4 µg/mL,–
"CO[C@H]1CC2C=C[C@H]3[C@H]4O[C@]2(/C(C)=C/[C@@H](C)[C@@H](C(C)O)OC1=O)[C@@H]3[C@H](O)[C@@H](C)[C@H]4OC(=O)c1ccc[nH]1 (some centres unmarked) [Nar, Nargenicin]",–,–,8 µg/mL,–,0.25 to 0.5 µg/mL,>64 µg/mL,0.25 to 0.5 µg/mL,–,–,–,776 to 5040 nM,–,–,–,0.388 to 11.6 nM
